Starred links: 1 amine or outer side, 2 acyl side, 3 side chain; linkers in the order of their positions; H or OH if unused. Positions of bridges follow the written chain, without caps; N, C: chain ends. Non-standard residues stand in square brackets, D forms with d. Residues, ends and D or L forms follow the SMILES beside them. *: point of attachment. 5FAM = O=C1OC2(c3ccc(O)cc3Oc3cc(O)ccc32)c2ccc(C(=O)*)cc21; Trimesoyl = O=C(c1cc(C(=O)[*:2])cc(C(=O)[*:3])c1)[*:1]; Phe(4-Cl) = N[C@@H](Cc1ccc(Cl)cc1)C(=O)O; Phe(4-F) = N[C@@H](Cc1ccc(F)cc1)C(=O)O; d2Nal = N[C@H](Cc1ccc2ccccc2c1)C(=O)O; βAsp = O=C(O)[C@H](CC(=O)[*:2])N[*:1]; Phg = N[C@H](C(=O)O)c1ccccc1; Dap = NC[C@H](N)C(=O)O; βAla = NCCC(=O)O
Columns and labels:
[1] = system: THP-1 cells; test: CellTiter-Glo luminescent cell viability assay; settings: 2-day treatment; for cell viability: 20 μM
Text: THP-1 (human promyelocytic leukemia) cells are widely used as E. chaffeensis infection studies of human monocytes in vitro, since initial characterization of infection ([31]).
Fig. 4. Cytotoxicity and proteolytic stability of Etf-1-binding peptides. (A) Effect of Etf-1-binding peptides on the viability of THP-1 cells as determined by CellTiter-Glo luminescent assay. Relative luminescence was plotted as function of the peptide concentration, with the cell viability of DMSO control group set as 100%. (B) Plot of the amount of intact peptide remaining as a function of the incubation time in 25% human serum. All values are normalized to that of peptide at time 0 (100%).
Cytotoxicity of Etf-1-binding peptides was examined by CellTiter-Glo luminescent cell viability assay (Promega, Madison, WI, USA). THP-1 cells were seeded in a transparent 96-well plate at a density of 5 × 10^3 cells/well (100 μL in each well) in RPMI-1640 containing 10% FBS and 1% antibiotics and cultured overnight. Etf-1-binding peptides were serially diluted in DPBS from a DMSO stock and added to the cells with the final concentration of 0–25 μM and a constant final concentration of 0.5% DMSO (v/v). After incubation at 37°C with 5% CO2 for 46 h, the plate was removed and pre-equilibrated to RT before the addition of 100 μL of the CellTiter-Glo 2.0 reagent to each well. The plate was incubated for 15 min on a rotary shaker in the dark, and the luminescence was detected (1-s integration time) on a Tecan Infinite M1000 Pro microplate reader. Relative luminescence was plotted as function of the peptide concentration, with the cell viability of DMSO control group set as 100%.

[2] = target: Etf-1 (Ehrlichia chaffeensis, UniProt Q2GG12); test: biochemical; assay type: binding; settings: unlabeled competitor peptides vs FAM-B7-133-8
Description: Fig. 2. Determination of binding affinity of Etf-1-binding peptides by FP assay. […] FAM-labeled peptide (50 nM) was incubated with serially diluted Etf-1 (starting from 25–30 μM in PBS, pH 7.4, supplemented with 5 mM DTT and 0.01% Triton X-100) for 1 h at RT. FP values were measured on a Tecan Infinite M1000 Pro plate reader. Titration curves (n ≥ 3) were fitted using GraphPad Prism and analyzed with TraceDrawer to calculate dissociation constants (KD). […] Data were analyzed using GraphPad Prism and fitted to a four-parameter variable slope equation to determine IC50 values.
Serial dilutions of competitor peptide (0-20 μM) were prepared from DMSO stock solutions into PBS containing 0.01% Triton-X100 and 2 mM TCEP and added to aliquots of the equilibrated Etf-1/probe solution. After incubation for 1 h in the dark and with gentle mixing, 20 μL of each sample was transferred into 384-well black-on-black microplates and FP was measured using a TECAN Infinite M1000 plate reader. Data were analyzed using GraphPad PRISM ver. 8.0 and fit to a four-parameter variable slope equation to determine IC50 values. IC50 values reported are the mean ± SD of n = 2–4 independent experiments.

[3] = system: E. chaffeensis; test: E. chaffeensis infection of THP-1 cells, qPCR of 16S rRNA gene normalized to human actin; assay type: cell-based, Ehrlichia chaffeensis; settings: 10 μM, 2 days, vs DMSO control
Description: Therefore, we investigated whether these Etf-1-binding peptides can prevent the proliferation of E. chaffeensis inside host cells. THP-1 cells were infected with E. chaffeensis, then treated with the peptides at 30 min post infection (pi) for 2 days. Intracellular infection and proliferation of E. chaffeensis inside host THP-1 cells were assessed using quantitative PCR (qPCR) analysis based on E. chaffeensis 16S rRNA gene normalized by human actin (ACT) gene.
Fig. 5. Effects of Etf-1-binding peptides on E. chaffeensis infection of THP-1 cells. Ehrlichia chaffeensis-infected THP-1 cells at […] were incubated with 10 μM of Etf-1-binding macrocyclic peptide or DMSO control for 2 days.
No antibiotic was used throughout the study.
DNA was extracted from each sample using Qiagen blood mini kit according to the manufacturer's instructions (Qiagen, Valencia, CA, USA), and qPCR analysis was performed in an MX3000P qPCR instrument (Stratagene, San Diego, CA, USA) using SYBR Green Real-Time PCR Master Mix (Thermo Fisher Scientific) according to the manufacturer's instructions. Five-fold serial dilutions of the control group were used to generate a standard curve to calculate the relative copy numbers of E. chaffeensis 16S rRNA normalized against human actin genes using the MX3000P software from Stratagene as described previously ([18], [44]).

[4] = system: BECN1 binding to Etf-1; test: streptavidin magnetic beads pull-down of BECN1 with biotin-Etf-1, Western blot; assay type: biochemical; settings: 10 µM peptide; for BECN1/Etf-1 Ratio: band intensities, DMSO control set as 1, Fig. 8B
Description: Fig. 8.
Streptavidin magnetic beads (15 µL, Pierce, Rockford, IL, USA) were washed with 1 mL of Bind/Wash buffer (25 mM Tris, pH 7.4; 250 mM NaCl, 0.1% Tween 20), and incubated with 0.15 µg ([…] final concentration) of biotinylated full-length Etf-1 protein in bind/wash buffer at 4°C overnight with end-to-end rotation. Beads were washed three times with Bind/Wash buffer, then incubated with Etf-1-binding macrocyclic peptides (10 µM) or DMSO control in Bind/Wash buffer at room temperature for 2 h. […] Beads were washed three times, and proteins were eluted from the beads with 50 µL of 2× SDS-sample buffer. […] Reacting bands were visualized with enhanced chemiluminescence by incubating the membrane with LumiGLO chemiluminescent reagent (Thermo Fisher Scientific). Images were captured by Amersham Imager 680 (GE Healthcare) and densitometry analysis was performed using ImagQuaNT (GE Healthcare). In each specimen, band intensities were normalized against those of actin as the loading control, and the ratios of the treatment group to the control group were calculated with the value in the control groups arbitrarily set as 1.0.

[5] = system: E. chaffeensis; test: morphological examination of E. chaffeensis infection of THP-1 cells by Diff-Quik staining; settings: for E. chaffeensis infection (numbers and sizes of morulae): THP-1 cells, Fig. S4 (with Figs. 5, S3)
Description: Ehrlichia chaffeensis Arkansas strain ([43]) was cultured in THP-1 cells (ATCC, Manassas, VA, USA) in RPMI 1640 medium (Corning, Manassas, VA, USA) supplemented with 8% FBS (Atlanta Biologicals, Flowery Branch, GA, USA) and 4 mM L-glutamine (at 37°C under 5% CO2 in a humidified atmosphere. THP-1 cells were seeded at 1 × 10^5 cells/well (in 1.5-mL RPMI 1640 culture medium with 8% FBS, 4 mM L-Gln) in a 12-well plate, then infected with host cell-free E. chaffeensis at an MOI (multiplicity of infection, or numbers of bacteria per cell) of ∼30. Cells were cultured in a humidified incubator with 5% CO2 and 95% air. No antibiotic was used throughout the study. At 0.5 h post infection (pi), cells were incubated with 1–10 μM of peptides or with an equal volume of DMSO (solvent control, 2 μL per mL medium). At 2 days pi, cells were washed with 1 mL of PBS, and two drops of cells were cytospun onto glass slides by a Shandon Cytospin 4 cytocentrifuge (Thermo Fisher Scientific), then fixed and stained with HEMA 3 staining solutions (Thermo Fisher Scientific). Ehrlichia infection was observed and images were captured by a SPOT RT digital camera (Diagnostic Instruments, Sterling Heights, MI, USA) coupled to a Nikon Eclipse E400 microscope (Nikon, Melville, NY, USA).

[6] = LDH release assay (plasma membrane damage); assay type: cell-based; settings: Fig. S2
Description: LDH release assay (Promega) was performed to assess the level of plasma membrane damage in a cell population by these compounds. […] Control wells contained 10 μL of lysis buffer, cell-free complete growth media, or positive LDH control. Following incubation at 37°C and 5% CO2 for 45 to 75 min, the culture was centrifuged and 50 μL of the growth medium was withdrawn from each well, transferred to a clear 96-well plate, mixed with 50 μL of LDH substrate mixture, and incubated at RT for 30 min with gentle mixing. Finally, 50 μL of 1 N HCl was added to each well, and the absorbances at 490 and 680 nm were immediately measured on a Tecan Infinite M1000 plate reader. Relative membrane leakage was calculated and plotted using GraphPad Prism v8.0.

Etf-1, sequence (Q2GG12 entry or part of it): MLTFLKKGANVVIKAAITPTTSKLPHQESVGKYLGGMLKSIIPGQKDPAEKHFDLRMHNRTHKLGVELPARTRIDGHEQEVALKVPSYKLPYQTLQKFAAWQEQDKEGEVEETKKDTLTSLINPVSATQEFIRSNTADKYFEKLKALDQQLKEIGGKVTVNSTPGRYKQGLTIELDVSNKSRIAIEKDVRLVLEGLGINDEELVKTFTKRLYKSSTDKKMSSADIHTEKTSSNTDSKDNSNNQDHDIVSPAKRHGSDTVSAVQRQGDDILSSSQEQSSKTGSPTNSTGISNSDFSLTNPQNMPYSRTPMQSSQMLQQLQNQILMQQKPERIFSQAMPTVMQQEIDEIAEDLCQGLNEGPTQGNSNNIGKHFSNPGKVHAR

Structure (SMILES)	cell viability [1]	competition for Etf-1 binding [2]	inhibition of E. chaffeensis infection [3]	disruption of BECN1 binding to Etf-1 ([4]; compared to DMSO control)	BECN1/Etf-1 Ratio [4]	E. chaffeensis infection (numbers and sizes of morulae) [5]	cytotoxicity (cell lysis in treated groups) ([5]; THP-1 host cells)	release of lactate dehydrogenase (LDH) [6]	cytotoxicity ([1]; up to 10 μM)
CC(C)C[C@H]1NC(=O)[C@H](C)NC(=O)[C@H](CC(=O)O)NC(=O)[C@@H](Cc2ccc3ccccc3c2)NC(=O)[C@H]2CCCN2C(=O)[C@H](Cc2c[nH]cn2)NC(=O)[C@H](Cc2ccc(O)cc2)NC(=O)c2cc3cc(c2)C(=O)NC[C@H](NC1=O)C(=O)N[C@@H](Cc1ccc(Cl)cc1)C(=O)N[C@H](Cc1ccc2ccccc2c1)C(=O)N[C@H](CCCNC(=N)N)C(=O)N[C@@H](CCCNC(=N)N)C(=O)N[C@H](CCCNC(=N)N)C(=O)N[C@@H](CCCNC(=N)N)C(=O)N[C@H](C(N)=O)CNC3=O [Peptide B7-131-5, TMA-Tyr-His-pro-nal-Asp-Ala-leu-Dap-4-ClPhe-nal-arg-Arg-arg-Arg-Dap] (YH[dP][d2Nal]DA[dL][Dap][Phe(4-Cl)][d2Nal][dR]R[dR]R[Dap]-NH2; linker N-8-15 via Trimesoyl)	greater loss of cell viability	Competition for Etf-1 binding was observed	significantly inhibited	disrupted BECN1 binding to Etf-1	0.23	significantly inhibited	certain degrees of cytotoxicity	significant release of lactate dehydrogenase	
CC(C)C[C@H]1NC(=O)C[C@@H](C(=O)O)NC(=O)[C@@H](Cc2ccc(O)cc2)NC(=O)[C@H](c2ccccc2)NC(=O)[C@H](CC(=O)O)NC(=O)[C@H](Cc2ccc(F)cc2)NC(=O)[C@H](Cc2ccc(O)cc2)NC(=O)c2cc3cc(c2)C(=O)NC[C@H](NC1=O)C(=O)N[C@@H](Cc1ccc(Cl)cc1)C(=O)N[C@H](Cc1ccc2ccccc2c1)C(=O)N[C@H](CCCNC(=N)N)C(=O)N[C@@H](CCCNC(=N)N)C(=O)N[C@H](CCCNC(=N)N)C(=O)N[C@@H](CCCNC(=N)N)C(=O)N[C@H](C(=O)NCCC(=O)NCCC(=O)N[C@@H](CCCCNC(=O)c1ccc2c(c1)C(=O)OC21c2ccc(O)cc2Oc2cc(O)ccc21)C(N)=O)CNC3=O [Peptide B7-131-4, TMA-Tyr-Fpa-Asp-Phg-tyr-isoAsp-leu-Dap-4-ClPhe-nal-arg-Arg-arg-Arg-Dap] (Y[Phe(4-F)]D[Phg][dY][βAsp][dL][Dap][Phe(4-Cl)][d2Nal][dR]R[dR]R[Dap][βAla][βAla]K(5FAM)-NH2; linker N-8-15 via Trimesoyl)	slightly reduced the cell viability	Competition for Etf-1 binding was observed			0.91	only slightly reduced			no cytotoxicity
